11 substances from article PMC6381024, “Probing Anti-inflammatory Properties Independent of NF-κB Through Conformational Constraint of Peptide-Based Interleukin-1 Receptor Biased Ligands” (Frontiers in Chemistry, 2019) can be followed below.

For experiment [1], the system named is JNK. Nature of the experiment: IL-1β-induced JNK phosphorylation, Western blot in RAW Blue cells. Further details: key to Western Blot JNK (heatmap grade of inhibition): 0: No effect; No effect 01234 Maximum inhibition/efficacy; No effect 01234 Maximum inhibition/efficacy; No effect 01234 Maximum inhibition/efficacy; 4: Maximum inhibition/efficacy. As to conditions: for Western Blot JNK (heatmap grade of inhibition): RAW Blue cells, peptide 10^-6 M or Kineret 1.0 mg/mL 30 min, then IL-1β 100 ng/mL 15 min. In kind it is cell-based. The protocol:
RAW Blue cells (Invivogen) were grown under standard conditions (37°C, 5% CO2) and maintained under passage number 15. Cells were equilibrated with 1, 5, or 6 (10^−6M) or Kineret (1.0 mg/mL) for 30 min, after which time they were exposed to IL-1β (100 ng/mL) for 15 min. Cells were harvested and lysed on ice for 30 min using a radioimmunoprecipitation assay buffer (Cell Signaling) supplemented with 1 mM phenylmethylsulfonyl fluoride (PMSF) and cOmplete™ EDTA-free protease inhibitor cocktail (Roche, Mannheim, Germany, prepared according to the manufacturer's instructions). Protein concentrations were determined using a Bradford protein assay (Bio-Rad) on 96-well plates with a microplate reader (EnVision Multilabel reader) measuring OD at […]. Bovine serum albumin serial dilutions were used to generate a standard curve. Lysates were then mixed with 4X reducing sample buffer (Bio-Rad).
Lysates were loaded (30 μg protein per well) in a 5% acrylamide stacking gel, and samples were electrophoresed in a 12% acrylamide resolving gel for 1.5 h at 120 V, followed by a 1 h transfer onto polyvinylidene difluoride (PDVF) membranes at 100 V. Membranes were blocked and incubated with 1:1,000 dilution of primary antibody and 1:20,000 dilution of secondary antibodies according to the manufacturer's instructions. Antibodies used were for phospho-p38 MAPK (Cell Signaling, #9211), p38 MAPK (Cell Signaling, #9212), SAPK/JNK (Cell Signaling, #9252), phospho-SAPK/JNK (Cell Signaling, #9251), ROCK2 (Thermo Fisher Scientific PA5-21131), phospho-ROCK2 (Thermo Fisher Scientific PA5-34895), and goat anti-rabbit conjugated to horseradish peroxidase (Abcam, ab6721). Membranes were imaged using an Amersham Imager 600 (GE Healthcare) using Clarity Western ECL Substrate (Bio-Rad). The intensity of protein bands was quantified using ImageJ and standardized using total (phosphorylated + non-phosphorylated) protein content. Data are representative of three independent experiments.
Figure 7 The effects of peptides 1, 5, and 6 on IL-1β-induced phosphorylation of JNK, ROCK2, and p38. Graphical representations of band density analysis of Western Blots, sorted into columns based on protein of interest (JNK, ROCK2, or p38) and rows by peptide configuration [(3R-) or (3S)]. RAW-blue cells were pretreated with peptides 1, 5, 6, Kineret, or vehicle for 30 min and then stimulated with IL-1β for 15 min. Images of representative Western Blots can be found in the Supplementary Figure 1. Results shown are the average of 3 independent experiments: ^*p < 0.05, ^**p < 0.01, ^***p < 0.001, ^****p < 0.0001 compared to group treated only with IL-1β. Treatment groups that are not labeled with asterisks are statistically non-significant compared to group treated only with IL-1β.

Experiment [2] has as its system COX2. Briefly: qPCR of IL-1β-induced COX-2 (PTGHS2) expression in HEK-Blue IL-33/IL-1β cells. As to conditions: for qPCR COX2 (heatmap grade of inhibition): HEK-Blue cells, peptide 10^-6 M or Kineret 1.0 mg/mL 30 min, then IL-1β 100 ng/mL 4 h (legend: overnight); for Suppression of COX2 transcription: HEK blue cells, 10^-6 M pre-treatment, IL-1β stimulation. Further details: key to qPCR COX2 (heatmap grade of inhibition): 0: No effect; No effect 01234 Maximum inhibition/efficacy; No effect 01234 Maximum inhibition/efficacy; No effect 01234 Maximum inhibition/efficacy; 4: Maximum inhibition/efficacy. In kind it is cell-based, human. As to the method: (§1) HEK-Blue IL-33/IL-1β cells were purchased from InvivoGen (San Diego, CA) and used at passages under 15. HEK-Blue cells were cultured in DMEM growth medium supplemented with 10% serum, 50 U/mL penicillin, […] streptomycin, […] zeocin, and […] hygromycin. Cells were grown in regular conditions (37°C, 5% CO2). Cells were serum starved overnight and treated with 100 ng/mL IL-1β for 4 h. Cells were pre-incubated for 30 min with peptides 1, 5, or 6 (10^−6M) or Kineret (1.0 mg/mL) prior to the experiments to reach equilibrium (n = 4 each treatment). Cells were harvested and incubated for 5 min in RIBOzol (AMRESCO). RNA was extracted according to manufacturer's protocol and RNA concentration and integrity were measured with a NanoDrop 1,000 spectrophotometer. A total of 500 ng RNA was used to synthetize cDNA using iScript Reverse Transcription SuperMix (Bio-Rad, Hercules, CA). Quantitative gene expression analysis was performed on Stratagene MXPro3000 (Stratagene) with SYBR Green Master Mix (Bio-Rad). Gene expression levels were normalized to 18S universal primer (Ambion Life Technology, Burlington ON, Canada). Genes analyzed include IL1β, IL6, and PTGHS2 [Prostaglandin H synthetase 2 or cyclooxygenase-2 (COX-2)]. Data are representative of 3 experiments (each with n = 4 per treatment group).
(§2) Figure 8 The effects of peptides 1, 5, and 6 on the expression of pro-inflammatory genes. HEK-Blue cells were pre-treated with peptides 1, 5, and 6 as above and stimulated with IL-1β overnight. qPCR was performed on cell lysates using 18S rRNA as internal control. Graphs are sorted in columns by gene of interest (COX-2, IL-1β, or IL-6) and rows by peptide configuration [(3R) or (3S)]. Results are representative of an average of 3 independent experiments (each with n = 4 per treatment group) and are expressed as a fold-change of the non-stimulated control: ^*p < 0.05, ^**p < 0.01, ^***p < 0.001, ^****p < 0.0001 compared to group treated only with IL-1β. Treatment groups that are not labeled with asterisks are statistically non-significant compared to group treated only with IL-1β.

Experiment [3] concerns IL-6. Briefly: qPCR of IL-1β-induced IL-6 expression in HEK-Blue IL-33/IL-1β cells. In kind it is cell-based, human. Further details: key to qPCR IL-6 (heatmap grade of inhibition): 0: No effect; No effect 01234 Maximum inhibition/efficacy; No effect 01234 Maximum inhibition/efficacy; No effect 01234 Maximum inhibition/efficacy; 4: Maximum inhibition/efficacy. As to conditions: for qPCR IL-6 (heatmap grade of inhibition): HEK-Blue cells, peptide 10^-6 M or Kineret 1.0 mg/mL 30 min, then IL-1β 100 ng/mL 4 h (legend: overnight); for Suppression of IL-6 transcription: HEK blue cells, 10^-6 M pre-treatment, IL-1β stimulation. As to the method:
as §1, §2
For orientation: In qPCR the cycle at which signal appears reflects the starting amount.

As to “Kineret: FDA-approved recombinant IL-1 receptor antagonist”, the “Western Blot JNK (heatmap grade of inhibition)” value in experiment [1] was 4. The “qPCR COX2 (heatmap grade of inhibition)” value in experiment [2] amounted to 4. Further, in experiment [3], the “qPCR IL-6 (heatmap grade of inhibition)” value is 4.
As to “H-D-Arg-D-Tyr-(S)-Agl-D-Val-D-Glu-D-Leu-D-Ala-NH2 [[(3S)-Agl^3]-1]”, in experiment [1], the “Western Blot JNK (heatmap grade of inhibition)” value worked out at 4. Also, the “qPCR COX2 (heatmap grade of inhibition)” value in experiment [2] stood at 4. Further, the “qPCR IL-6 (heatmap grade of inhibition)” value in experiment [3] came out at 2.
As to “H-D-Arg-D-Tyr-(3R,4R)-Hgl-D-Val-D-Glu-D-Leu-D-Ala-NH2 [[(3R,4R)-Hgl^3]-1]”, in experiment [1], the “Western Blot JNK (heatmap grade of inhibition)” value was found to be 0. Further, the “qPCR COX2 (heatmap grade of inhibition)” value in experiment [2] is reported as 4. Also, the “qPCR IL-6 (heatmap grade of inhibition)” value in experiment [3] is 4.
On to “H-D-Arg-D-Tyr-(3R,4R)-Hgl-(S)-Val-D-Glu-D-Leu-D-Ala-NH2 [[(3R,4R)-Hgl^3-(S)-Val^4]-1]”, for which the “Western Blot JNK (heatmap grade of inhibition)” value in experiment [1] was determined as 1. For the same substance, the “qPCR COX2 (heatmap grade of inhibition)” value in experiment [2] came out at 4. Further, the “qPCR IL-6 (heatmap grade of inhibition)” value in experiment [3] was 4.
Turning to “H-D-Arg-D-Tyr-(R)-Agl-D-Val-D-Glu-D-Leu-D-Ala-NH2 [[(3R)-Agl^3]-1]”, in experiment [1], the “Western Blot JNK (heatmap grade of inhibition)” value is 4. Further, the “qPCR COX2 (heatmap grade of inhibition)” value in experiment [2] was determined as 3. In experiment [3], the “qPCR IL-6 (heatmap grade of inhibition)” value amounted to 3.
“H-D-Arg-D-Tyr-(R)-Agl-(S)-Val-D-Glu-D-Leu-D-Ala-NH2 [[(3R)-Agl^3-(S)-Val^4]-1]”: the “Western Blot JNK (heatmap grade of inhibition)” value in experiment [1] was determined as 0. In experiment [2], the “Suppression of COX2 transcription” value is given as “ability to suppress the transcription of all three genes was lost” and the “qPCR COX2 (heatmap grade of inhibition)” value is reported as 1. In addition, in experiment [3], the “Suppression of IL-6 transcription” value is reported as “ability to suppress the transcription of all three genes was lost” and the “qPCR IL-6 (heatmap grade of inhibition)” value is 1.
As for “H-D-Arg-D-Tyr-(3S,4R)-Hgl-D-Val-D-Glu-D-Leu-D-Ala-NH2 [[(3S,4R)-Hgl^3]-1]”, the “Western Blot JNK (heatmap grade of inhibition)” value in experiment [1] is on record as 3. Further, the “qPCR COX2 (heatmap grade of inhibition)” value in experiment [2] is 4. The “qPCR IL-6 (heatmap grade of inhibition)” value in experiment [3] was found to be 4.
Regarding “H-D-Arg-D-Tyr-(3R,4S)-Hgl-(S)-Val-D-Glu-D-Leu-D-Ala-NH2 [[(3R,4S)-Hgl^3-(S)-Val^4]-1]”, the “Western Blot JNK (heatmap grade of inhibition)” value in experiment [1] is 2. The “qPCR COX2 (heatmap grade of inhibition)” value in experiment [2] came out at 4. The “qPCR IL-6 (heatmap grade of inhibition)” value in experiment [3] came out at 2.
Take “H-D-Arg-D-Tyr-(S)-Agl-(S)-Val-D-Glu-D-Leu-D-Ala-NH2 [[(3S)-Agl^3-(S)-Val^4]-1]”: the “Western Blot JNK (heatmap grade of inhibition)” value in experiment [1] came to 0. In experiment [2], the “Suppression of COX2 transcription” value is listed as “ability to suppress the transcription of all three genes was lost” and the “qPCR COX2 (heatmap grade of inhibition)” value is given as 1. Moreover, in experiment [3], the “Suppression of IL-6 transcription” value was “ability to suppress the transcription of all three genes was lost” and the “qPCR IL-6 (heatmap grade of inhibition)” value stood at 1.
Consider “H-D-Arg-D-Tyr-(3R,4S)-Hgl-D-Val-D-Glu-D-Leu-D-Ala-NH2 [[(3R,4S)-Hgl^3]-1]”, for which the “Western Blot JNK (heatmap grade of inhibition)” value in experiment [1] is recorded as 4. Besides, in experiment [2], the “qPCR COX2 (heatmap grade of inhibition)” value is given as 4. For the same substance, the “qPCR IL-6 (heatmap grade of inhibition)” value in experiment [3] worked out at 4.
“H-D-Arg-D-Tyr-D-Thr-D-Val-D-Glu-D-Leu-D-Ala-NH2 [Peptide 1]”: in experiment [1], the “Western Blot JNK (heatmap grade of inhibition)” value was determined as 4. For the same substance, the “Inhibition of IL-1β-induced JNK phosphorylation” value in experiment [1] (RAW-blue cells, 10^-6 M, 30 min, then IL-1β 15 min) is recorded as “inhibited the effects of all three kinases”. Also, in experiment [2], the “Suppression of COX2 transcription” value is recorded as “strong suppression of transcription of all three genes” and the “qPCR COX2 (heatmap grade of inhibition)” value is 4. In addition, in experiment [3], the “Suppression of IL-6 transcription” value is listed as “strong suppression of transcription of all three genes” and the “qPCR IL-6 (heatmap grade of inhibition)” value came to 4.
